Experimental data as given in ChEMBL document CHEMBL4002605, “Synthesis, identification and in vitro biological evaluation of some novel quinoline incorporated 1,3-thiazinan-4-one derivatives” (Bioorg Med Chem Lett, 2017).
≈ marks a conversion by molar mass, not a printed value.

Columns and labels:
[1] = system: Bacillus subtilis; assay: Antibacterial activity against Bacillus subtilis MTCC 441 by broth microdilution assay method; type: functional
[2] = system: Clostridium tetani; assay: Antibacterial activity against Clostridium tetani MTCC 449 by broth microdilution assay method; type: functional
[3] = system: Vibrio cholerae; assay: Antibacterial activity against Vibrio cholerae MTCC 3906 by broth microdilution assay method; type: functional
[4] = system: Mycobacterium tuberculosis; assay: Antitubercular activity against Mycobacterium tuberculosis H37Rv at 6 ug/mL; type: functional
[5] = system: Escherichia coli; assay: Antibacterial activity against Escherichia coli MTCC 443 by broth microdilution assay method; type: functional
[6] = system: Salmonella typhi; assay: Antibacterial activity against Salmonella typhi MTCC 98 by broth microdilution assay method; type: functional, Salmonella enterica subsp. enterica serovar Typhi; settings: Salmonella enterica
[7] = system: Streptococcus pneumoniae; assay: Antibacterial activity against Streptococcus pneumoniae MTCC 1936 by broth microdilution assay method; type: functional
[8] = system: Plasmodium falciparum; assay: Antimalarial activity against Plasmodium falciparum; type: functional

SMILES	MIC [1] [µg/mL]	MIC [2] [µg/mL]	MIC [3] [µg/mL]	inhibition at 6 µg/mL [4] [%]	MIC [5] [µg/mL]	MIC [6] [µg/mL]	MIC [7] [µg/mL]	IC50 [8] [µg/mL]
O=C1CCSC(c2ccc(Cl)cc2)N1CCCCNc1ccnc2cc(Cl)ccc12 (centres undefined)	250 (≈ 543 µM)	125 (≈ 271 µM)	62.5 (≈ 136 µM)	60	250 (≈ 543 µM)	125 (≈ 271 µM)	250 (≈ 543 µM)	0.14 (≈ 0.304 µM)
COc1ccc(C2SCCC(=O)N2CCCNc2ccnc3cc(Cl)ccc23)cc1 (centres undefined)	125 (≈ 283 µM)	250 (≈ 566 µM)	250 (≈ 566 µM)	57	250 (≈ 566 µM)	500 (≈ 1130 µM)	125 (≈ 283 µM)	0.52 (≈ 1.18 µM)
O=C1CCSC(c2ccc(Cl)cc2)N1CCCNc1ccnc2cc(Cl)ccc12 (centres undefined)	125 (≈ 280 µM)	250 (≈ 560 µM)	250 (≈ 560 µM)	67	125 (≈ 280 µM)	250 (≈ 560 µM)	62.5 (≈ 140 µM)	0.12 (≈ 0.269 µM)
O=C1CCSC(c2ccc(Br)cc2)N1CCCCNc1ccnc2cc(Cl)ccc12 (centres undefined)	100 (≈ 198 µM)	250 (≈ 495 µM)	125 (≈ 248 µM)	82	62.5 (≈ 124 µM)	62.5 (≈ 124 µM)	100 (≈ 198 µM)	0.064 (≈ 0.127 µM)
O=C1CCSC(c2cccc(Cl)c2)N1CCCNc1ccnc2cc(Cl)ccc12 (centres undefined)	125 (≈ 280 µM)	250 (≈ 560 µM)	250 (≈ 560 µM)	55	250 (≈ 560 µM)	250 (≈ 560 µM)	250 (≈ 560 µM)	1.62 (≈ 3.63 µM)
COc1cccc(C2SCCC(=O)N2NC(=O)c2cnc3c(C(F)(F)F)cccc3c2O)c1 (centres undefined)	250 (≈ 524 µM)	500 (≈ 1050 µM)	250 (≈ 524 µM)	65	250 (≈ 524 µM)	250 (≈ 524 µM)	500 (≈ 1050 µM)	1.7 (≈ 3.56 µM)
O=C1CCSC(c2cccc(F)c2)N1CCCCNc1ccnc2cc(Cl)ccc12 (centres undefined)	250 (≈ 563 µM)	125 (≈ 282 µM)	125 (≈ 282 µM)	55	125 (≈ 282 µM)	100 (≈ 225 µM)	250 (≈ 563 µM)	1.31 (≈ 2.95 µM)
O=C1CCSC(c2ccc(O)cc2)N1CCCNc1ccnc2cc(Cl)ccc12 (centres undefined)	250 (≈ 584 µM)	250 (≈ 584 µM)	250 (≈ 584 µM)	42	250 (≈ 584 µM)	62.5 (≈ 146 µM)	125 (≈ 292 µM)	1.14 (≈ 2.66 µM)
COc1cccc(C2SCCC(=O)N2CCCNc2ccnc3cc(Cl)ccc23)c1 (centres undefined)	250 (≈ 566 µM)	500 (≈ 1130 µM)	500 (≈ 1130 µM)	51	250 (≈ 566 µM)	250 (≈ 566 µM)	250 (≈ 566 µM)	1.87 (≈ 4.23 µM)
Cc1ccc(C2SCCC(=O)N2NC(=O)c2cnc3c(C(F)(F)F)cccc3c2O)cc1 (centres undefined)	250 (≈ 542 µM)	250 (≈ 542 µM)	500 (≈ 1080 µM)	60	500 (≈ 1080 µM)	250 (≈ 542 µM)	500 (≈ 1080 µM)	1.56 (≈ 3.38 µM)
O=C1CCSC(c2ccc(O)cc2)N1CCNc1ccnc2cc(Cl)ccc12 (centres undefined)	62.5 (≈ 151 µM)	250 (≈ 604 µM)	250 (≈ 604 µM)	74	500 (≈ 1210 µM)	250 (≈ 604 µM)	250 (≈ 604 µM)	1.78 (≈ 4.3 µM)
O=C(NN1C(=O)CCSC1c1ccc(F)cc1)c1cnc2c(C(F)(F)F)cccc2c1O (centres undefined)	31.2 (≈ 67.1 µM)	15.6 (≈ 33.5 µM)	125 (≈ 269 µM)	92	125 (≈ 269 µM)	250 (≈ 537 µM)	125 (≈ 269 µM)	0.052 (≈ 0.112 µM)
COc1cccc(C2SCCC(=O)N2CCCCNc2ccnc3cc(Cl)ccc23)c1 (centres undefined)	500 (≈ 1100 µM)	250 (≈ 548 µM)	125 (≈ 274 µM)	42	250 (≈ 548 µM)	250 (≈ 548 µM)	500 (≈ 1100 µM)	2.14 (≈ 4.69 µM)
O=C1CCSC(c2ccccc2)N1CCCCNc1ccnc2cc(Cl)ccc12 (centres undefined)	500 (≈ 1170 µM)	500 (≈ 1170 µM)	500 (≈ 1170 µM)	32	500 (≈ 1170 µM)	500 (≈ 1170 µM)	500 (≈ 1170 µM)	3.12 (≈ 7.32 µM)
O=C1CCSC(c2cccc(Cl)c2)N1CCNc1ccnc2cc(Cl)ccc12 (centres undefined)	250 (≈ 578 µM)	250 (≈ 578 µM)	250 (≈ 578 µM)	60	125 (≈ 289 µM)	250 (≈ 578 µM)	125 (≈ 289 µM)	1.57 (≈ 3.63 µM)
COc1ccc(C2SCCC(=O)N2NC(=O)c2cnc3c(C(F)(F)F)cccc3c2O)cc1 (centres undefined)	125 (≈ 262 µM)	250 (≈ 524 µM)	250 (≈ 524 µM)	70	250 (≈ 524 µM)	125 (≈ 262 µM)	250 (≈ 524 µM)	1.45 (≈ 3.04 µM)
COc1ccc(C2SCCC(=O)N2CCCCNc2ccnc3cc(Cl)ccc23)cc1 (centres undefined)	250 (≈ 548 µM)	250 (≈ 548 µM)	125 (≈ 274 µM)	48	500 (≈ 1100 µM)	250 (≈ 548 µM)	250 (≈ 548 µM)	0.81 (≈ 1.78 µM)
O=C1CCSC(c2cccc(F)c2)N1CCNc1ccnc2cc(Cl)ccc12 (centres undefined)	250 (≈ 601 µM)	250 (≈ 601 µM)	250 (≈ 601 µM)	66	62.5 (≈ 150 µM)	250 (≈ 601 µM)	125 (≈ 301 µM)	1.05 (≈ 2.52 µM)
O=C1CCSC(c2cccc(F)c2)N1CCCNc1ccnc2cc(Cl)ccc12 (centres undefined)	125 (≈ 291 µM)	250 (≈ 581 µM)	250 (≈ 581 µM)	52	250 (≈ 581 µM)	125 (≈ 291 µM)	125 (≈ 291 µM)	1.12 (≈ 2.6 µM)

SMILES	MIC [1] [µg/mL]	MIC [2] [µg/mL]	MIC [3] [µg/mL]	inhibition at 6 µg/mL [4] [%]	MIC [5] [µg/mL]	MIC [6] [µg/mL]	MIC [7] [µg/mL]	IC50 [8] [µg/mL]
O=C(NN1C(=O)CCSC1c1ccc(O)cc1)c1cnc2c(C(F)(F)F)cccc2c1O (centres undefined)	125 (≈ 270 µM)	250 (≈ 539 µM)	125 (≈ 270 µM)	79	250 (≈ 539 µM)	125 (≈ 270 µM)	250 (≈ 539 µM)	1.58 (≈ 3.41 µM)
O=C1CCSC(c2ccc(Br)cc2)N1CCCNc1ccnc2cc(Cl)ccc12 (centres undefined)	62.5 (≈ 127 µM)	100 (≈ 204 µM)	100 (≈ 204 µM)	87	125 (≈ 255 µM)	62.5 (≈ 127 µM)	62.5 (≈ 127 µM)	0.056 (≈ 0.114 µM)
O=C1CCSC(c2cccc(Cl)c2)N1CCCCNc1ccnc2cc(Cl)ccc12 (centres undefined)	250 (≈ 543 µM)	250 (≈ 543 µM)	125 (≈ 271 µM)	49	250 (≈ 543 µM)	125 (≈ 271 µM)	250 (≈ 543 µM)	1.93 (≈ 4.19 µM)
O=C1CCSC(c2ccccc2)N1CCCNc1ccnc2cc(Cl)ccc12 (centres undefined)	500 (≈ 1210 µM)	500 (≈ 1210 µM)	500 (≈ 1210 µM)	47	500 (≈ 1210 µM)	500 (≈ 1210 µM)	500 (≈ 1210 µM)	3.5 (≈ 8.5 µM)
O=C1CCSC(c2ccc(F)cc2)N1CCCNc1ccnc2cc(Cl)ccc12 (centres undefined)	62.5 (≈ 145 µM)	100 (≈ 233 µM)	100 (≈ 233 µM)	78	62.5 (≈ 145 µM)	125 (≈ 291 µM)	31.2 (≈ 72.7 µM)	0.089 (≈ 0.207 µM)
O=C1CCSC(c2ccc(F)cc2)N1CCCCNc1ccnc2cc(Cl)ccc12 (centres undefined)	100 (≈ 225 µM)	125 (≈ 282 µM)	62.5 (≈ 141 µM)	65	125 (≈ 282 µM)	62.5 (≈ 141 µM)	100 (≈ 225 µM)	0.092 (≈ 0.207 µM)
COc1cccc(C2SCCC(=O)N2CCNc2ccnc3cc(Cl)ccc23)c1 (centres undefined)	62.5 (≈ 146 µM)	250 (≈ 584 µM)	500 (≈ 1170 µM)	58	250 (≈ 584 µM)	500 (≈ 1170 µM)	250 (≈ 584 µM)	1.89 (≈ 4.42 µM)
Cc1ccc(C2SCCC(=O)N2CCCCNc2ccnc3cc(Cl)ccc23)cc1 (centres undefined)	250 (≈ 568 µM)	250 (≈ 568 µM)	250 (≈ 568 µM)	40	500 (≈ 1140 µM)	500 (≈ 1140 µM)	500 (≈ 1140 µM)	2.33 (≈ 5.3 µM)
O=C(NN1C(=O)CCSC1c1ccc(Br)cc1)c1cnc2c(C(F)(F)F)cccc2c1O (centres undefined)	62.5 (≈ 119 µM)	31.2 (≈ 59.4 µM)	62.5 (≈ 119 µM)	98	125 (≈ 237 µM)	31.2 (≈ 59.4 µM)	125 (≈ 237 µM)	0.018 (≈ 0.0342 µM)
O=C1CCSC(c2ccc(O)cc2)N1CCCCNc1ccnc2cc(Cl)ccc12 (centres undefined)	250 (≈ 566 µM)	500 (≈ 1130 µM)	250 (≈ 566 µM)	38	125 (≈ 283 µM)	250 (≈ 566 µM)	250 (≈ 566 µM)	2.64 (≈ 5.97 µM)
Cc1ccc(C2SCCC(=O)N2CCCNc2ccnc3cc(Cl)ccc23)cc1 (centres undefined)	125 (≈ 293 µM)	500 (≈ 1170 µM)	500 (≈ 1170 µM)	41	250 (≈ 587 µM)	500 (≈ 1170 µM)	250 (≈ 587 µM)	2.2 (≈ 5.16 µM)
O=C(NN1C(=O)CCSC1c1cccc(Cl)c1)c1cnc2c(C(F)(F)F)cccc2c1O (centres undefined)	125 (≈ 259 µM)	250 (≈ 519 µM)	250 (≈ 519 µM)	71	125 (≈ 259 µM)	250 (≈ 519 µM)	250 (≈ 519 µM)	1.2 (≈ 2.49 µM)
O=C(NN1C(=O)CCSC1c1ccc(Cl)cc1)c1cnc2c(C(F)(F)F)cccc2c1O (centres undefined)	62.5 (≈ 130 µM)	125 (≈ 259 µM)	125 (≈ 259 µM)	90	250 (≈ 519 µM)	250 (≈ 519 µM)	250 (≈ 519 µM)	0.067 (≈ 0.139 µM)
CC1(C)S[C@@H]2[C@H](NC(=O)[C@H](N)c3ccccc3)C(=O)N2[C@H]1C(=O)O [AMPICILLIN]	250 (≈ 715 µM)	250 (≈ 715 µM)	100 (≈ 286 µM)		100 (≈ 286 µM)	100 (≈ 286 µM)	100 (≈ 286 µM)	
O=C(O)c1cn(C2CC2)c2cc(N3CCNCC3)c(F)cc2c1=O [CIPROFLOXACIN]			25 (≈ 75.4 µM)		25 (≈ 75.4 µM)	25 (≈ 75.4 µM)	25 (≈ 75.4 µM)	
CCn1cc(C(=O)O)c(=O)c2cc(F)c(N3CCNCC3)cc21 [NORFLOXACIN]	100 (≈ 313 µM)	50 (≈ 157 µM)	10 (≈ 31.3 µM)		10 (≈ 31.3 µM)	10 (≈ 31.3 µM)	10 (≈ 31.3 µM)	
C=C[C@H]1CN2CC[C@H]1C[C@H]2[C@H](O)c1ccnc2ccc(OC)cc12 [QUININE]								0.271 (≈ 0.835 µM)
CO[C@H]1/C=C/O[C@@]2(C)Oc3c(C)c(O)c4c(O)c(c(/C=N/N5CCN(C)CC5)c(O)c4c3C2=O)NC(=O)/C(C)=C\C=C\[C@H](C)[C@H](O)[C@@H](C)[C@@H](O)[C@@H](C)[C@H](OC(C)=O)[C@@H]1C [RIFAMPIN]				98				
